From article PMC8863579, “Effects of pharmacological inhibition of the sodium‐dependent phosphate cotransporter 2b (NPT2b) on intestinal phosphate absorption in mouse and rat models” (Pharmacology Research & Perspectives, 2022)
Several values for one entry are separate records, joined by “and”; a condition that tells them apart may be missing. Identical values can stand only once. Like-named read-outs stand apart in the source and are kept apart here.

Key:
[1] = system: intestinal phosphate absorption; experiment: Recovery of radiolabeled phosphate in gastrointestinal tract of rats at 4 h; type: in vivo, rat; conditions: LY3358966 10 mg/kg
Procedure: (§1) Male Sprague Dawley rats, 260–287 g for the first study and 274–362 g for the second study, were fasted for 4 h (the first 4 h of the light cycle) then dosed with placebo, a 50 or 150 mg/kg sevelamer HCl water dispersion, LY3358966 SDD (10 mg/kg API) dissolved in water, or a combination of LY3358966 SDD and sevelamer HCl. Fifteen minutes later, the animals were dosed with radiolabeled phosphate as described above. In the first study, the animals were given free access to food, then feces were collected at 6, 24, and 48 h post radiolabeled phosphate dose. In the second study, the animals were fasted an additional 4 h, then feces, stomach, small intestine, and large intestine were individually collected. The gastrointestinal tract tissues and feces were digested overnight at 37°C in 1 N NaOH, and the recovered radioactivity was determined.

[2] = system: intestinal phosphate absorption; experiment: Recovery of radiolabeled phosphate in feces of mice; type: in vivo, mouse
Procedure: Male C57BL/6 male mice, 9 weeks old (23–28 g, n = 10/group), were dosed with either placebo or LY3358966 SDD (9 mg/kg API) dissolved in water at t = −4.25, −0.25, and 3.75 h. The animals were fasted from t = −4 to t = 0 h. At t = 0, the animals were dosed with radiolabeled phosphate as described above and were given free access to food. Feces were collected at 6, 24, and 48 h, digested overnight at 37°C in 1 N NaOH, and the recovered radioactivity was determined. Most of the radiolabeled phosphate was recovered in the first 24 h. […] In all cases, the investigators collecting feces were blinded to the treatment.

[3] = target: T1, intestinal NPT2b (Mus musculus, UniProt Q9DBP0); experiment: Acute phosphate uptake into plasma in mice; type: in vivo; conditions: for ED50: mouse, po, read-out: ED50, inhibition of acute phosphate uptake into plasma; for Emax, maximum inhibition of phosphate uptake into plasma: oral
T1 construct: from tissue; host or cells: intestine of live male C57BL/6 mice, oral dosing
T1 sequence (Q9DBP0 1-697): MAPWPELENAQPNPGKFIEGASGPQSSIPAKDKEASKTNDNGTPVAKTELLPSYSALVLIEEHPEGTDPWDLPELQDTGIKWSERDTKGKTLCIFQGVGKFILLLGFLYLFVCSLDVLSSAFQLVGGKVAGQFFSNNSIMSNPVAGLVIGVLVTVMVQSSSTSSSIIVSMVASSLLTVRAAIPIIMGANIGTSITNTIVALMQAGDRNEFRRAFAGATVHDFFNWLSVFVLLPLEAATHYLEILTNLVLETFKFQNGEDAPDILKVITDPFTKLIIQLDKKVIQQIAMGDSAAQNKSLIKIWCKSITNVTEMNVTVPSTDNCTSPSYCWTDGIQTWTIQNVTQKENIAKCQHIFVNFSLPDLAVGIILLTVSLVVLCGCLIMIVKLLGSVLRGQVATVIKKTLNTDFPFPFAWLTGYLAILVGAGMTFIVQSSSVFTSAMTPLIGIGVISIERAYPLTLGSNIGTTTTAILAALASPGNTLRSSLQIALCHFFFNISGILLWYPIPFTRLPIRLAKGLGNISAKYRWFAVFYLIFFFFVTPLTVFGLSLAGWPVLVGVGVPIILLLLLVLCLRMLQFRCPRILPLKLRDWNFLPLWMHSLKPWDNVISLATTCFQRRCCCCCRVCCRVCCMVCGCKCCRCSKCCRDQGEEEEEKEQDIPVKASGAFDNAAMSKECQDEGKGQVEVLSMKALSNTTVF
Procedure: Male C57BL/6 male mice (n = 7–9/group) at the age of about 8–9 weeks (21–29 g) were fasted overnight and throughout the study. Mice were dosed orally with varying doses of LY3358966 SDD dissolved in water or a PVP‐VA vehicle control. Fifteen minutes later, a radioactive phosphate dosing solution (200 µl of 16.25 mM Na2HPO4, 0.9% saline, pH 7.4 supplemented with about one million dpm of H3 ^33PO4) was given by oral gavage. This dose of phosphate was chosen because it approximates the mouse equivalent of the amount of bioavailable phosphate in a human meal which is 4 mg/kg phosphorus, or 320 mg phosphorus for an 80 kg person on a phosphate restricted diet. Fifteen minutes later, blood was collected and radioactivity in the plasma was determined by scintillation counting. The inhibition of acute phosphate uptake into plasma by LY3358966 was determined by comparing the counts in the plasma from LY3358966‐treated animals to that in the plasma of the vehicle‐treated animals. ED50 values were then determined with a 4‐parameter logistic curve fitting model using GraphPad Prism 7.04.
To test the ability of LY3358966 to inhibit intestinal NPT2b activity in mice over time, the above mice were bled again at 3 h post compound dose to determine the residual radioactivity in the plasma. At 4 h post compound dose, the animals were again dosed with phosphate using threefold more H3 ^33PO4 than used in the first oral dose. Fifteen minutes later, blood was collected and radioactivity in the plasma was used to calculate LY3358966 inhibition of phosphate uptake into plasma. For this calculation, the residual counts at 3 h were first subtracted from the final counts at 4 h. The 3‐h counts were typically <15% of the 4‐h counts.

[4] = system: intestinal phosphate absorption; experiment: Recovery of radiolabeled phosphate in feces of rats; type: in vivo, rat; conditions: LY3358966 10 mg/kg
Procedure: as §1

[5] = 9 mg/kg API x 3 doses at 4-h intervals

CC1(C)CN(C(=O)NCCCCO)CCN1Cc1cccc(C(=O)Nc2sc3c(c2C(=O)Nc2cc(F)c(CCc4ccc(C(=O)O)cc4)c(F)c2)CCCC3)c1 [LY3358966, 4‐[2‐[2,6‐difluoro‐4‐[[2‐[[3‐[[4‐(4‐hydroxybutylcarbamoyl)‐2,2‐dimethyl‐piperazin‐1‐yl]methyl]benzoyl]amino]‐4,5,6,7‐tetrahydrobenzothiophene‐3‐carbonyl]amino]phenyl]ethyl]benzoic acid]
increase of 33P-phosphate recovery in the gastrointestinal tract over vehicle ([1]; 4 h): 6.34%
33P Recovered in G.I. Tract, Large Intestine (means ± SEM) ([1]; 4 hours): 13.75 ± 2.83%
33P Recovered in G.I. Tract, Small Intestine (means ± SEM) ([1]; 4 hours): 15.51 ± 2.37%
33P Recovered in G.I. Tract, Stomach (means ± SEM) ([1]; 4 hours): 1.83 ± 0.41%
33P Recovered in Total G.I. Tract (means ± SEM) ([1]; 4 hours, 10 mg/kg): 31.09% and 31.09 ± 1.38%
33P Recovered in Feces (0-6 hrs), Mean ± SEM [2, 5]: 6.08 ± 1.68%
33P Recovered in Feces (6-24 hrs), Mean ± SEM [2, 5]: 10.77 ± 1.57%
33P Recovered in Feces (24-48 hrs), Mean ± SEM [2, 5]: 1.60 ± 0.08%
33P Recovered in Total Feces (0-48 hrs), Mean ± SEM ([2]; 9 mg/kg API x 3 doses at 4-h intervals, 9 mg/kg): 18.44% and 18.44 ± 1.27%
increase in radiolabeled phosphate recovered in feces versus vehicle ([2]; 48 h, 9 mg/kg API x 3, 9 mg/kg): 8.6 % of the dose and 8.58 % of the dose
ED50 ([3]; 15 min post LY3358966 dose): 0.15 mg/kg
ED50 ([3]; 4 h post LY3358966 dose): 1.1 mg/kg
Emax, maximum inhibition of phosphate uptake into plasma ([3]; 15 min post LY3358966 dose): 74%
Emax, maximum inhibition of phosphate uptake into plasma ([3]; 4 h post LY3358966 dose): 79%
NPT2b inhibitor mediated recovery in feces (difference between placebo and LY3358966-treated groups) ([4]; 48 h, 10 mg/kg): 5.3% and 5.34%
33P Recovered in Feces (0-6 hrs), Mean ± SEM [4]: 0.23 ± 0.19%
33P Recovered in Feces (6-24 hrs), Mean ± SEM [4]: 16.62 ± 1.04%
33P Recovered in Feces (24-48 hrs), Mean ± SEM [4]: 1.44 ± 0.14%
33P Recovered in Feces Total (0-48 hrs), Mean ± SEM ([4]; 10 mg/kg): 18.29 ± 1.04%
